Data: publication PMC7554656 (Molecular Metabolism, 2020)
pEC50: −log10 of the molar value.

Biological target: T1, SGLT2 (sodium-glucose cotransporter 2) (Homo sapiens, UniProt P31639)
T1 sequence (P31639 1-672): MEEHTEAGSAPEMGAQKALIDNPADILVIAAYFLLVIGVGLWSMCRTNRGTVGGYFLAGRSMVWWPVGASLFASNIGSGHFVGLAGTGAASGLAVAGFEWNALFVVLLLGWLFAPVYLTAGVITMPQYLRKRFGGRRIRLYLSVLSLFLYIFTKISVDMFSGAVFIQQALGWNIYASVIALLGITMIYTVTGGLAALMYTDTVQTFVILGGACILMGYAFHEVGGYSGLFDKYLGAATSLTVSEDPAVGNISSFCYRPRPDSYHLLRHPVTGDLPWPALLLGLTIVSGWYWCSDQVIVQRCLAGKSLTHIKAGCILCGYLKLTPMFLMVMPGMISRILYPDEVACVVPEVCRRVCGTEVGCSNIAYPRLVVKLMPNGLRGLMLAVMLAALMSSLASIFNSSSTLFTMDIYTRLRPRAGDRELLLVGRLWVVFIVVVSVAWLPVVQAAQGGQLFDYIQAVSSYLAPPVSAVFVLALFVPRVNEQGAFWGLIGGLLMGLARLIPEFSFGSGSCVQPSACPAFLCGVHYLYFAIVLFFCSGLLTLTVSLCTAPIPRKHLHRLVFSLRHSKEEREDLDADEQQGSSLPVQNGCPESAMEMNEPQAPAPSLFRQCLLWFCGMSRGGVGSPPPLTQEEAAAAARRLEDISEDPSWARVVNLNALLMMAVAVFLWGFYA
Experiment: inhibition of […]-alpha-methyl-D-glucopyranoside uptake in HEK293-hSGLT2 cells
Assay type: cell-based

Q: `OC[C@H]1O[C@@H](c2ccc(Cl)c(Cc3ccc(O[C@H]4CCOC4)cc3)c2)[C@H](O)[C@@H](O)[C@@H]1O` [empagliflozin] was tested. Which pEC50 did it give?
A: 8.37
